# Assay results as given in patent US20100216785A1, “PHARMACEUTICAL COMPOSITIONS” (NEUROSCIENZE PHARMANESS S.C. A.R.L., priority 2009, published 2010).
# Biological target: T1, CB2 cannabinoidergic receptors (Mus musculus, UniProt P47936)
# T1 construct: the complete brain (excluding the cerebellum) and the spleen were quickly dissected and kept in ice; from tissue; host or cells: mouse spleen membranes
# Experiment: Radioreceptor binding, displacement of [3H]-CP-55,940, CB2 receptors (mouse spleen membranes)
# Conditions: 1 nM [3H]-CP55,940, 1 hour at 30° C.
# Protocol: (§1) The affinity of the compounds towards the CB1 and CB2 cannabinoidergic receptors was evaluated in vitro by radioreceptor binding studies using the following method.
# (§2) The technique of the receptor binding allows to establish if, and with which affinity and specificity, a specific compound binds to a particular receptor. To evaluate the affinity of a specific compound to a particular receptor it is necessary to challenge in a particular tissue preparation wherein those specific receptors are present the compound to be tested with a radioactive labelled compound whose affinity for the same receptors is known. […] The amount of radioactivity present in the receptor-compound complex allows furthermore to stimate with great accuracy the amount of compound bound to the receptor. By said method it is therefore possible to stablish quickly the affinity of a new compound towards a specific receptor and thus to determine its pharmacological activity. […]
# (§3) The thus obtained membranes (50-80 μg of proteins) were incubated in the presence of 1 nM of [^3H]-CP55.940 for 1 hour at 30° C. in a final volume of 0.5 ml of TME buffer containing 5 mg/ml of bovine serum albumin (BSA). The non specific binding was measured in the presence of CP55.940 at a 1 μM concentration. […]
# (§4) The radioactivity present in the filters was determined by a scintillator spectrophotometer (Tricarb® 2100, Packard, Meridien, USA). […]
# T1 sequence (P47936 whole entry): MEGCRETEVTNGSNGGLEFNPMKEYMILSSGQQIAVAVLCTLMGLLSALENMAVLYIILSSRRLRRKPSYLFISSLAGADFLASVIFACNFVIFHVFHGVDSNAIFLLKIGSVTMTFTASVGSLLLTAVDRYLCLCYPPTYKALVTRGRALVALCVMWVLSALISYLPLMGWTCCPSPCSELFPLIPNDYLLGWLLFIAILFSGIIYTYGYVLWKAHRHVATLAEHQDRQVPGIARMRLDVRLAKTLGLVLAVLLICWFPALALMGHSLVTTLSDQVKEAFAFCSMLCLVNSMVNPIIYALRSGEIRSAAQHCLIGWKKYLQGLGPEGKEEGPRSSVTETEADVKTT
row,SMILES,Ki [µM]
1,"Cc1ccc2c(c1)oc1c(C(N)=O)nn(-c3ccc(Cl)cc3Cl)c12 [1-(2,4-dichlorophenyl)-6-methyl-1H-benzofuro[3,2-c]pyrazole-3-carboxamide]",> 3

# Biological target: T2, CB1 cannabinoidergic receptors (Mus musculus, UniProt P47746)
# T2 construct: the complete brain (excluding the cerebellum) and the spleen were quickly dissected and kept in ice; from tissue; host or cells: mouse brain (excluding the cerebellum) membranes
# T2 sequence (P47746 whole entry): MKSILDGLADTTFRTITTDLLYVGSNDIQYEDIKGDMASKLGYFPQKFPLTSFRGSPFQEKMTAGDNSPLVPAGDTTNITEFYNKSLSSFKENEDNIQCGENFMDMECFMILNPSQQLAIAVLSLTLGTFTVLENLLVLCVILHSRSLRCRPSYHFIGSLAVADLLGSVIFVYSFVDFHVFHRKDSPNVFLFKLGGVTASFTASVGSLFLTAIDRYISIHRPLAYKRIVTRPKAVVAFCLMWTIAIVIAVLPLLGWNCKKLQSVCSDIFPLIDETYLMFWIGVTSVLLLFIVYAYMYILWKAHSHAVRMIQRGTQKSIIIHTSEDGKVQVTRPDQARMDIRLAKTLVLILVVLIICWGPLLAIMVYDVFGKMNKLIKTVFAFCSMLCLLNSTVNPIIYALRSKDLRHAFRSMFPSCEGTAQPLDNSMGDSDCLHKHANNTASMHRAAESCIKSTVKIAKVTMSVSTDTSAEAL
# Experiment: Radioreceptor binding, displacement of [3H]-CP-55,940, CB1 receptors (mouse brain membranes)
# Conditions: not given
# Protocol: as §1, §2, §3, §4
row,SMILES,Ki [µM]
1,"Cc1ccc2c(c1)oc1c(C(N)=O)nn(-c3ccc(Cl)cc3Cl)c12 [1-(2,4-dichlorophenyl)-6-methyl-1H-benzofuro[3,2-c]pyrazole-3-carboxamide]",> 3

# Tested on: not given
# Experiment: not given
# Conditions: not given
row,SMILES,melting point [°C]
1,"Cc1ccc2c(c1)oc1c(C(=O)N[C@@H]3C[C@H]4C[C@@H]([C@@H]3C)C4(C)C)nn(-c3ccc(Cl)cc3Cl)c12 [Example 3.25, N-2,6,6-trimethyl-bicyclo[3.1.1]hept-3yl-1-(2,4-dichlorophenyl)-6-methyl-1H-benzofuro[3,2-c]pyrazole-3-carboxamide]",85 to 87
2,"Cc1ccc2c(c1)oc1c(C(=O)NC3CCCCC3)nn(-c3ccc(Cl)cc3Cl)c12 [Example 3.23, N-cyclohexyl-1-(2,4-dichlorophenyl)-6-methyl-1H-benzofuro[3,2-c]pyrazole-3-carboxamide]",140 to 142
3,"Cc1ccc2c(c1)oc1c(C(N)=O)nn(-c3ccc(Cl)cc3Cl)c12 [1-(2,4-dichlorophenyl)-6-methyl-1H-benzofuro[3,2-c]pyrazole-3-carboxamide]",185 to 186
4,"Cc1ccc2c(c1)oc1c(C(=O)NN3CCOCC3)nn(-c3ccc(Cl)cc3Cl)c12 [Example 3.22, N-morpholin-4yl-1-(2,4-dichlorophenyl)-6-methyl-1H-benzofuro[3,2-c]pyrazole-3-carboxamide]",178 to 180
5,"Cc1ccc2c(c1)oc1c(C(=O)NC3CC4CCC3(C)C4(C)C)nn(-c3ccc(Cl)cc3Cl)c12 (stereo not drawn) [Example 3.27, N-1,7,7-trimethyl-bicyclo[2.2.1]hept-2yl-1-(2,4-dichlorophenyl)-6-methyl-1H-benzofuro[3,2-c]pyrazole-3-carboxamide]",78 to 80
6,"Cc1ccc2c(c1)oc1c(C(=O)NC34CC5CC(CC(C5)C3)C4)nn(-c3ccc(Cl)cc3Cl)c12 [Example 3.28, N-adamantan-1yl-1-(2,4-dichlorophenyl)-6-methyl-1H-benzofuro[3,2-c]pyrazole-3-carboxamide]",210 to 212
7,"Cc1ccc2c(c1)oc1c(C(=O)NN3CCCC3)nn(-c3ccc(Cl)cc3Cl)c12 [Example 3.21, N-pirrolidinyl-1-(2,4-dichlorophenyl)-6-methyl-1H-benzofuro[3,2-c]pyrazole-3-carboxamide]",90 to 92

# Results, then the molecule that gave them:
row,melting point [°C],SMILES
1,209 to 211,"Cc1ccc2c(c1)oc1c(C(=O)NC3C4CC5CC(C4)CC3C5)nn(-c3ccc(Cl)cc3Cl)c12 (stereo not drawn) [Example 3.29, N-adamantan-2yl-1-(2,4-dichlorophenyl)-6-methyl-1H-benzofuro[3,2-c]pyrazole-3-carboxamide]"
2,84 to 86,"Cc1ccc2c(c1)oc1c(C(=O)NC3C4(C)CCC(C4)C3(C)C)nn(-c3ccc(Cl)cc3Cl)c12 (stereo not drawn) [Example 3.26, N-1,3,3-trimethyl-bicyclo[2.2.1]hept-2yl-1-(2,4-dichlorophenyl)-6-methyl-1H-benzofuro[3,2-c]pyrazole-3-carboxamide]"
3,70 to 72,"Cc1ccc2c(c1)oc1c(C(=O)N[C@H]3C[C@@H](C)CC[C@@H]3C(C)C)nn(-c3ccc(Cl)cc3Cl)c12 [Example 3.24, N-2-isopropyl-5-methyl-cyclohexyl-1-(2,4-dichlorophenyl)-6-methyl-1H-benzofuro[3,2-c]pyrazole-3-carboxamide]"
